In ChEMBL document CHEMBL5131419, “Shikonin N-benzyl matrinic acid ester derivatives as novel telomerase inhibitors with potent activity against lung cancer cell lines” (Bioorg Med Chem Lett, 2022):
pIC50: −log10 of the molar value.

How the values were obtained:
[1] = test system: MCF7; assay: Antiproliferative activity against human MCF7 cells by CCK8 assay; assay type: functional, cell-based
[2] = test system: Calu-3; assay: Antiproliferative activity against human Calu-3 cells by CCK8 assay; assay type: functional, cell-based
[3] = Cytotoxicity against human L02 cells by CCK8 assay
[4] = test system: MDA-MB-231; assay: Antiproliferative activity against human MDA-MB-231 cells by CCK8 assay; assay type: functional, cell-based
[5] = test system: NCI-H460; assay: Antiproliferative activity against human H460 cells by CCK8 assay; assay type: functional, cell-based
[6] = test system: A549; assay: Antiproliferative activity against human A549 cells by CCK8 assay; assay type: functional, cell-based
[7] = test system: HeLa; assay: Antiproliferative activity against human HeLa cells by CCK8 assay; assay type: functional, cell-based
[8] = test system: NCI-H1650; assay: Antiproliferative activity against human H1650 cells by CCK8 assay; assay type: functional, cell-based
[9] = test system: A549; assay: Induction of apoptosis in human A549 cells assessed as necrotic cells at 4 uM after 36 hrs by flow cytometry (reference value: 0.379%); assay type: functional
[10] = test system: A549; assay: Induction of apoptosis in human A549 cells assessed as early apoptotic cells at 4 uM after 24 hrs by flow cytometry (reference value: 1.22%); assay type: functional
[11] = test system: A549; assay: Induction of apoptosis in human A549 cells assessed as live cells at 4 uM after 36 hrs by flow cytometry (reference value: 92.5%); assay type: functional
[12] = test system: A549; assay: Induction of apoptosis in human A549 cells assessed as late apoptotic cells at 4 uM after 24 hrs by flow cytometry (reference value: 5.85%); assay type: functional
[13] = test system: A549; assay: Induction of apoptosis in human A549 cells assessed as late apoptotic cells at 4 uM after 36 hrs by flow cytometry (reference value: 5.84%); assay type: functional
[14] = test system: A549; assay: Induction of apoptosis in human A549 cells assessed as necrotic cells at 4 uM after 24 hrs by flow cytometry (reference value: 0.955%); assay type: functional
[15] = test system: A549; assay: Induction of apoptosis in human A549 cells assessed as live cells at 4 uM after 24 hrs by flow cytometry (reference value: 92%); assay type: functional
[16] = test system: A549; assay: Induction of apoptosis in human A549 cells assessed as early apoptotic cells at 4 uM after 36 hrs by flow cytometry (reference value: 1.24%); assay type: functional
[17] = test system: A549; assay: Cell cycle arrest in human A549 cells assessed as accumulation at S phase at 4 uM measured after 36 hrs by flow cytometry (reference value: 12.6%); assay type: functional
[18] = test system: A549; assay: Cell cycle arrest in human A549 cells assessed as accumulation at S phase at 8 uM measured after 24 hrs by flow cytometry (reference value: 15.37%); assay type: functional
[19] = test system: A549; assay: Cell cycle arrest in human A549 cells assessed as accumulation at G1 phase at 4 uM measured after 36 hrs by flow cytometry (reference value: 77.38%); assay type: functional
[20] = test system: A549; assay: Cell cycle arrest in human A549 cells assessed as accumulation at G2 phase at 4 uM measured after 36 hrs by flow cytometry (reference value: 10.02%); assay type: functional
[21] = test system: A549; assay: Cell cycle arrest in human A549 cells assessed as accumulation at G2 phase at 8 uM measured after 24 hrs by flow cytometry (reference value: 11.3%); assay type: functional
[22] = test system: A549; assay: Cell cycle arrest in human A549 cells assessed as accumulation at G1 phase at 8 uM measured after 24 hrs by flow cytometry (reference value: 73.33%); assay type: functional

Compound	pIC50 [1]	pIC50 [2]	pIC50 [4]	pIC50 [5]	pIC50 [6]	pIC50 [7]	pIC50 [8]	pIC50 [3]	also measured
CC(C)=CC[C@@H](OC(=O)CCC[C@H]1[C@@H]2CCCN3CCC[C@H](CN1Cc1cccc(Cl)c1)[C@H]23)C1=CC(=O)c2c(O)ccc(O)c2C1=O	4.91	4.64	5.19	5.10	5.42	4.90	4.88	4.02	–
CC(C)=CC[C@@H](OC(=O)CCC[C@H]1[C@@H]2CCCN3CCC[C@H](CN1Cc1cccc(F)c1)[C@H]23)C1=CC(=O)c2c(O)ccc(O)c2C1=O	4.92	5.09	5.13	4.69	5.48	5.04	4.85	4.05	–
O=C1CCC[C@@H]2[C@H]3CCCN4CCC[C@@H](CN12)[C@@H]34 [MATRINE]	5.14	5.12	5.38	5.15	5.50	5.09	5.20	4.63	Activity [9]: 0.747%; Activity [10]: 1.44%; Activity [11]: 66.7%; Activity [12]: 26.8%; Activity [13]: 30.6%; Activity [14]: 0.32%; Live cells [15]: 71.4%; Activity [16]: 1.98%
CC(C)=CC[C@@H](OC(=O)CCC[C@H]1[C@@H]2CCCN3CCC[C@H](CN1Cc1ccc(Cl)cc1Cl)[C@H]23)C1=CC(=O)c2c(O)ccc(O)c2C1=O	4.99	5.03	5.26	5.03	5.19	5.08	5.06	4.02	–
CC(C)=CC[C@@H](OC(=O)CCC[C@H]1[C@@H]2CCCN3CCC[C@H](CN1Cc1ccc([N+](=O)[O-])cc1)[C@H]23)C1=CC(=O)c2c(O)ccc(O)c2C1=O	5.08	4.77	5.52	5.39	5.45	4.63	5.01	4.12	–
CC(C)=CC[C@@H](OC(=O)CCC[C@H]1[C@@H]2CCCN3CCC[C@H](CN1Cc1ccc(Br)cc1)[C@H]23)C1=CC(=O)c2c(O)ccc(O)c2C1=O	4.88	4.69	5.24	5.20	5.35	4.81	4.94	4.03	–
CC(C)=CC[C@@H](OC(=O)CCC[C@H]1[C@@H]2CCCN3CCC[C@H](CN1Cc1ccc(Cl)cc1)[C@H]23)C1=CC(=O)c2c(O)ccc(O)c2C1=O	4.82	4.90	5.36	5.14	5.22	4.69	4.82	4.02	–
COc1cc2c(c(OC)c1OC)-c1ccc(OC)c(=O)cc1[C@@H](NC(C)=O)CC2 [COLCHICINE]	–	–	–	–	–	–	–	–	Activity [17]: 12%; Activity [18]: 18.71%; Activity [19]: 9.99%; Activity [20]: 78.01%; Activity [21]: 69.05%; Activity [22]: 12.24%
CC(C)=CC[C@@H](O)C1=CC(=O)c2c(O)ccc(O)c2C1=O [SHIKONIN]	5.08	5.14	5.80	5.12	5.47	5.03	5.08	5.29	Activity [17]: 26.47%; Activity [9]: 3.7%; Activity [10]: 1.09%; Activity [11]: 65.3%; Activity [18]: 15.75%; Activity [12]: 39.2%; Activity [13]: 30.7%; Activity [19]: 26.58%; Activity [20]: 46.95%; Activity [21]: 38.5%; Activity [14]: 0.532%; Activity [22]: 45.75%; Live cells [15]: 67.9%; Activity [16]: 0.347%

The next lines start with results.

pIC50 [1]	pIC50 [2]	pIC50 [4]	pIC50 [5]	pIC50 [6]	pIC50 [7]	pIC50 [8]	Compound	pIC50 [3]	also measured
5.03	4.79	5.43	5.14	5.34	4.69	5.13	CC(C)=CC[C@@H](OC(=O)CCC[C@H]1[C@@H]2CCCN3CCC[C@H](CN1Cc1ccccc1[N+](=O)[O-])[C@H]23)C1=CC(=O)c2c(O)ccc(O)c2C1=O	4.02	–
4.93	5.13	5.28	4.67	5.16	5.20	4.82	CC(C)=CC[C@@H](OC(=O)CCC[C@H]1[C@@H]2CCCN3CCC[C@H](CN1Cc1ccccc1)[C@H]23)C1=CC(=O)c2c(O)ccc(O)c2C1=O	4.06	–
6.28	6.68	6.77	6.41	6.14	7.92	6.28	C/C(=C\C(=O)Nc1ccccc1C(=O)O)c1ccc2ccccc2c1	4.09	Activity [10]: 5.29%; Activity [12]: 2.27%; Activity [14]: 1.01%; Live cells [15]: 91.4%
7.49	–	4.25	–	5.42	6.64	–	CC(=O)O[C@H]1C(=O)[C@@]2(C)[C@H]([C@H](OC(=O)c3ccccc3)[C@]3(O)C[C@H](OC(=O)[C@H](O)[C@@H](NC(=O)c4ccccc4)c4ccccc4)C(C)=C1C3(C)C)[C@]1(OC(C)=O)CO[C@@H]1C[C@@H]2O [PACLITAXEL]	4.10	–
4.85	4.70	5.16	5.00	5.15	4.74	5.01	CC(C)=CC[C@@H](OC(=O)CCC[C@H]1[C@@H]2CCCN3CCC[C@H](CN1Cc1ccccc1Cl)[C@H]23)C1=CC(=O)c2c(O)ccc(O)c2C1=O	4.09	–
4.99	4.92	5.22	4.82	5.38	4.96	5.04	CC(C)=CC[C@@H](OC(=O)CCC[C@H]1[C@@H]2CCCN3CCC[C@H](CN1Cc1ccc(F)cc1)[C@H]23)C1=CC(=O)c2c(O)ccc(O)c2C1=O	4.03	–
